According to the NIST ThermoML archive (doi:10.1016/j.jct.2013.04.015):

What was measured:
[1] = for surface tension liquid-gas: Wilhelmy plate method; for mass density: 101 kPa, Liquid, Vibrating tube method
[2] = xn = mol fraction of the nth substance listed; details: for surface tension liquid-gas: Wilhelmy plate method; for mass density: 101 kPa, Liquid, Vibrating tube method

CO [methanol]
[1]
Details	mass density [kg/m3]	surface tension liquid-gas [mN/m]
298.15 K	786.4	22.22
308.15 K	776.9	21.46
318.15 K	767.2	20.46

CCCCn1cc[n+](C)c1.C[C@H](O)C(=O)[O-] [1-butyl-3-methylimidazolium L-lactate] + CO
[2]
Details	mass density [kg/m3]	surface tension liquid-gas [mN/m]
298.15 K, x1 = 0.0121	–	23.38
298.15 K, x1 = 0.0353	–	24.72
298.15 K, x1 = 0.0496	–	25.63
298.15 K, x1 = 0.0699	–	26.72
298.15 K, x1 = 0.0901	–	28.06
298.15 K, x1 = 0.0998	960.5	–
298.15 K, x1 = 0.1051	–	28.6
298.15 K, x1 = 0.1968	1022.4	–
298.15 K, x1 = 0.1995	–	31.01
298.15 K, x1 = 0.3	1063.1	–
298.15 K, x1 = 0.3011	–	33.55
298.15 K, x1 = 0.3999	1075.9	–
298.15 K, x1 = 0.4038	–	35.7
298.15 K, x1 = 0.5	1082.9	–
298.15 K, x1 = 0.5029	–	36.97
298.15 K, x1 = 0.5996	1088	–
298.15 K, x1 = 0.614	–	38.06
298.15 K, x1 = 0.7001	1090.5	–
298.15 K, x1 = 0.7037	–	38.57
298.15 K, x1 = 0.8002	1091.5	–
298.15 K, x1 = 0.8056	–	39.25
298.15 K, x1 = 0.8988	1097.8	–
298.15 K, x1 = 0.9152	–	40.89
298.15 K, x1 = 1	1111.2	42.92
308.15 K, x1 = 0.0115	–	22.56
308.15 K, x1 = 0.0346	–	24.12
308.15 K, x1 = 0.0544	–	25.1
308.15 K, x1 = 0.0702	–	26.05
308.15 K, x1 = 0.091	–	27.26
308.15 K, x1 = 0.0998	956.6	–
308.15 K, x1 = 0.1058	–	28.32
308.15 K, x1 = 0.1968	1019.4	–
308.15 K, x1 = 0.2002	–	30.7
308.15 K, x1 = 0.3	1057.4	–
308.15 K, x1 = 0.3033	–	33.15
308.15 K, x1 = 0.3999	1070.5	–
308.15 K, x1 = 0.4003	–	35.37
308.15 K, x1 = 0.5	1077.4	–
308.15 K, x1 = 0.5032	–	36.69
308.15 K, x1 = 0.5913	–	37.46
308.15 K, x1 = 0.5996	1084.2	–
308.15 K, x1 = 0.7001	1085.4	–
308.15 K, x1 = 0.7064	–	37.66
308.15 K, x1 = 0.791	–	38.03
308.15 K, x1 = 0.8002	1087.2	–
308.15 K, x1 = 0.8938	–	39.37
308.15 K, x1 = 0.8988	1089	–
308.15 K, x1 = 1	1104.2	42.37
318.15 K, x1 = 0.0118	–	21.91
318.15 K, x1 = 0.0364	–	23.48
318.15 K, x1 = 0.0527	–	24.57
318.15 K, x1 = 0.0711	–	25.49
318.15 K, x1 = 0.0907	–	26.91
318.15 K, x1 = 0.0998	953.2	–
318.15 K, x1 = 0.1085	–	27.8
318.15 K, x1 = 0.1968	1014.3	–
318.15 K, x1 = 0.2003	–	29.96
318.15 K, x1 = 0.3	1051.9	–
318.15 K, x1 = 0.302	–	32.56
318.15 K, x1 = 0.3999	1066.8	–
318.15 K, x1 = 0.4072	–	35.2
318.15 K, x1 = 0.5	1074.7	–
318.15 K, x1 = 0.5096	–	36.52
318.15 K, x1 = 0.5996	1077.7	–
318.15 K, x1 = 0.6103	–	36.74
318.15 K, x1 = 0.7001	1078	–
318.15 K, x1 = 0.7054	–	36.95
318.15 K, x1 = 0.8002	1078.9	–
318.15 K, x1 = 0.8108	–	37.31
318.15 K, x1 = 0.8845	–	38.3
318.15 K, x1 = 0.8988	1079.9	–
318.15 K, x1 = 1	1097.7	42.01

CO [methanol] + CCCCn1cc[n+](C)c1.C[C@H](O)C(=O)[O-]
[2], x2 = 0
Details	mass density [kg/m3]	surface tension liquid-gas [mN/m]
298.15 K	786.4	22.22
308.15 K	776.9	21.46
318.15 K	767.2	20.46

CCCCO [butan-1-ol]
[1]
Details	mass density [kg/m3]	surface tension liquid-gas [mN/m]
298.15 K	805.7	23.89
308.15 K	798	23.46
318.15 K	790.1	22.62

CCCCO [butan-1-ol] + CCCCn1cc[n+](C)c1.C[C@H](O)C(=O)[O-]
[2], x2 = 0
Details	mass density [kg/m3]	surface tension liquid-gas [mN/m]
298.15 K	805.7	23.89
308.15 K	798	23.46
318.15 K	790.1	22.62

CCCCn1cc[n+](C)c1.C[C@H](O)C(=O)[O-] [1-butyl-3-methylimidazolium L-lactate]
[1]
Details	mass density [kg/m3]	surface tension liquid-gas [mN/m]
293.15 K	1115.3	43.14
298.15 K	1111.2	42.92
303.15 K	1107.5	42.79
308.15 K	1104.2	42.37
313.15 K	1100.5	42.19
318.15 K	1097.7	42.01
323.15 K	1094.1	41.64
333.15 K	1086.1	41.04
343.15 K	1079.8	40.56

O [water] + CCCCn1cc[n+](C)c1.C[C@H](O)C(=O)[O-]
[2], x2 = 0
Details	mass density [kg/m3]	surface tension liquid-gas [mN/m]
298.15 K	–	71.85
308.15 K	994.1	70.48
318.15 K	–	68.89

CCCCn1cc[n+](C)c1.C[C@H](O)C(=O)[O-] [1-butyl-3-methylimidazolium L-lactate] + CCO
[2]
Details	mass density [kg/m3]	surface tension liquid-gas [mN/m]
298.15 K, x1 = 0.01	–	22.44
298.15 K, x1 = 0.0299	–	22.99
298.15 K, x1 = 0.0497	–	23.47
298.15 K, x1 = 0.0708	–	24
298.15 K, x1 = 0.0944	–	24.54
298.15 K, x1 = 0.0997	897.2	–
298.15 K, x1 = 0.1987	959.5	–
298.15 K, x1 = 0.2001	–	26.97
298.15 K, x1 = 0.3018	–	29.2
298.15 K, x1 = 0.3066	1002	–
298.15 K, x1 = 0.4019	–	31.51
298.15 K, x1 = 0.4106	1028.2	–
298.15 K, x1 = 0.4954	1042.5	–
298.15 K, x1 = 0.499	–	33.45
298.15 K, x1 = 0.5989	1058.4	–
298.15 K, x1 = 0.6216	–	35.27
298.15 K, x1 = 0.6985	1070.8	–
298.15 K, x1 = 0.7009	–	36.3
298.15 K, x1 = 0.7524	–	37.06
298.15 K, x1 = 0.7869	1082.1	–
298.15 K, x1 = 0.8381	–	38.77
298.15 K, x1 = 0.8978	1095.2	–
298.15 K, x1 = 1	1111.2	42.92
308.15 K, x1 = 0.01	–	21.58
308.15 K, x1 = 0.0302	–	22.12
308.15 K, x1 = 0.0474	–	22.62
308.15 K, x1 = 0.0707	–	23.22
308.15 K, x1 = 0.0952	–	23.9
308.15 K, x1 = 0.0997	888.9	–
308.15 K, x1 = 0.1987	951.9	–
308.15 K, x1 = 0.2028	–	26.53
308.15 K, x1 = 0.3026	–	28.8
308.15 K, x1 = 0.3066	994.7	–
308.15 K, x1 = 0.406	–	31.08
308.15 K, x1 = 0.4106	1021.1	–
308.15 K, x1 = 0.4954	1034.3	–
308.15 K, x1 = 0.4966	–	32.88
308.15 K, x1 = 0.5989	1050.4	–
308.15 K, x1 = 0.6053	–	34.78
308.15 K, x1 = 0.6882	–	35.51
308.15 K, x1 = 0.6985	1062.4	–
308.15 K, x1 = 0.7869	1073.8	–
308.15 K, x1 = 0.7888	–	36.81
308.15 K, x1 = 0.8313	–	37.9
308.15 K, x1 = 0.8978	1086.9	–
308.15 K, x1 = 1	1104.2	42.37
318.15 K, x1 = 0.01	–	20.88
318.15 K, x1 = 0.0304	–	21.56
318.15 K, x1 = 0.0448	–	21.9
318.15 K, x1 = 0.0702	–	22.56
318.15 K, x1 = 0.0958	–	23.39
318.15 K, x1 = 0.0997	881.9	–
318.15 K, x1 = 0.1987	944	–
318.15 K, x1 = 0.203	–	26.09
318.15 K, x1 = 0.3032	–	28.36
318.15 K, x1 = 0.3066	987.7	–
318.15 K, x1 = 0.4034	–	30.45
318.15 K, x1 = 0.4106	1014.5	–
318.15 K, x1 = 0.4954	1028.3	–
318.15 K, x1 = 0.5017	–	32.46
318.15 K, x1 = 0.5989	1042.6	–
318.15 K, x1 = 0.6042	–	34.23
318.15 K, x1 = 0.6657	–	34.84
318.15 K, x1 = 0.6985	1055.3	–
318.15 K, x1 = 0.7561	–	35.48
318.15 K, x1 = 0.7869	1066.9	–
318.15 K, x1 = 0.8319	–	36.61
318.15 K, x1 = 0.8978	1079.8	–
318.15 K, x1 = 1	1097.7	42.01
